In US9682965B2, “Fumagillol heterocyclic compounds and methods of making and using same” (Zafgen, Inc., priority 2015, dated 2017):
Where a name gives a salt, the structure may show the parent alone. Read-outs that look alike come from different tables or passages of the source.

Experiments:
[1] = molecular target: recombinant human MetAP2 (Homo sapiens (Human), UniProt P50579); experiment: recombinant human MetAP2 enzyme inhibition assay; assay type: biochemical; conditions: recombinant human MetAP2, MAS peptide substrate, 25 minutes at 25° C
Chain of recombinant human MetAP2 (P50579 whole entry): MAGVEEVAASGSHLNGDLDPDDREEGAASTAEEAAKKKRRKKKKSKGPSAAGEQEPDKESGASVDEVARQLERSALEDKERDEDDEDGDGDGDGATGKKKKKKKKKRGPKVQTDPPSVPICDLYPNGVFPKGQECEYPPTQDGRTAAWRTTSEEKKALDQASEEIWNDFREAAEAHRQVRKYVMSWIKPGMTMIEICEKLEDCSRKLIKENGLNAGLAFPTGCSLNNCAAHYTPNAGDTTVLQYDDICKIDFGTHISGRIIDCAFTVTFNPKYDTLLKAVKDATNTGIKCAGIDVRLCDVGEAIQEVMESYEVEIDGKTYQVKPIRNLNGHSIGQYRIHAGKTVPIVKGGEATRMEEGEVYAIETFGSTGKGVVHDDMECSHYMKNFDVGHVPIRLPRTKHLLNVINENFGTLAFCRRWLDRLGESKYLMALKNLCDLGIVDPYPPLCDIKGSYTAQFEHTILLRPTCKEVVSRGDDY
Experimental: Compounds are tested for their capacity to inhibit recombinant human MetAP2 activity using the following assay.
Flag tagged Human recombinant MetAP2 expressed and isolated for use as the enzyme source. 10 mM stock solutions of compounds were prepared in 100% DMSO and further diluted in 100% DMSO required concentration to 1 mM stocks. The stock compound solutions and DMSO vehicle controls were diluted to target final compound concentrations using assay buffer to a final concentration of 50 mM HEPES containing 100 mM NaCl, pH adjusted to 7.5. The MAS peptide was formulated to a 7.5 mM stock in distilled water and prior to use further diluted 1:4. […] 40 μl of enzyme was mixed with 100 μl of MnCl2 then further diluted in assay buffer to a final concentration of 16 μg/ml. To test for compound effect on MetAP2 enzyme activity, 5 μl of test compound, 10 μl of MAS substrate/amino acid oxidase mixture, 10 μl of MetAP2 was added to test wells in a 384 well black plate with blank wells containing no enzyme, replaced with 10 μl of assay buffer. All compounds were tested in duplicate on two occasions on the same day.
The plate was sealed with a TopSeal A cover and mixed briefly on an orbital mixer at 900 rpm. The plate was incubated for a further 25 minutes at 25° C. A 5× stock of Amplex buffer was prepared (0.25M sodium phosphate, pH 7.4) and stored at 4° C. […] 25 μl detection reagent was added to each well of the test plate, which was re-sealed and mixed briefly on an orbital shaker.

[2] = tested on: Diet Induced Obese (DIO) C57BL/6 mice; experiment: 10 day DIO mouse model (body weight, food intake, hematology, blood chemistry); assay type: in vivo; conditions: 240 h, read-out: DIO Mouse 10-day weight loss vs vehicle; for inhibition in vivo at 1 mg/kg: 1.0 mpk sc; for inhibition in vivo at 0.1 mg/kg: 0.1 mpk sc
How it was run: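 DIO C57BL/6 mice on 60% kcal fat diet received compounds subcutaneously once daily for 10 days at 1.0, 0.5, 0.3, 0.1 or 0.03 mpk, in 10% DMSO in water, after 3-day vehicle acclimation. Body weight and food intake were recorded daily. Hematology and blood chemistry were taken on Day 11, 24 h post-final dose.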

[3] = tested on: Male Sprague Dawley rats on high fat diet; experiment: 11 day rat DIO model (body weight, food intake, hematology, blood chemistries); assay type: in vivo; conditions: 264 h, DIO rat, once a day for 11 days, read-out: DIO Rat 11-day weight loss vs vehicle; for inhibition in vivo at 0.3 mg/kg: 0.3 mpk sc; for inhibition in vivo at 1 mg/kg: 1.0 mpk sc
Text: The objective of this study design is to investigate the efficacy of disclosed compounds in an 11 day rat DIO model used to screen compounds for pharmacologic efficacy on endpoints related to obesity and metabolism. Effects on body weight, food intake, hematology and blood chemistries were the primary readouts of this study design. […] Rats were fed Research Diets D12451 (45% High Fat) and provided water ad libitum. Rats were received and housed in the facility for at least two or three weeks prior to start of test article administration. On Day −4 or −3, rats were randomized into study groups based on body weight and body weights were continued to be recorded daily for the duration of the study. Daily food intake was assessed starting on Study Day −2 by weighing the hopper including the food to avoid loss of food in transfer.
Compounds were formulated into a 100% DMSO stock (at 9 mg/mL) prior to the start, and further diluted into the target working concentration using the vehicle of 10% DMSO in water. Prior to test article administration, starting on Day −3 a dosing acclimation occured with all animals receiving a subcutaneous injection of vehicle (10% DMSO) only for 3 days. Starting on Day 1, test compounds or vehicle were administered based on individual body weight, subcutaneously, once a day for 11 days. All animals were sacrificed on Day 11, approximately 2 hours following the final dosing on Day 11. After sacrifice, whole blood was collected and analyzed for hematology and blood chemistry parameters.
Compounds were tested vs. vehicle at various doses (1.0, 0.5, 0.3, 0.1, 0.03 mpk sc (mg per kg animal weight delivered subcutaneously), and the results are shown in Table 2 below.

[4] = tested on: pregnant Sprague Dawley rats (embryo/fetal development)
Text: Study Summary Rat Embryofetal:
The objective of this study design was to evaluate the potential effects of disclosed compounds on embryo/fetal development when given subcutaneously to pregnant rats once every three days during the critical period of organogenesis (Gestation Days 6-18). Female, Sprague Dawley rats, approximately 10 weeks of age, time bred, were ordered from a certified vendor and housed individually housed in stainless steel cages suspended over flush pans, on a 12-hour light-dark cycle (0700-1900) at 20-26° C. and 30-70% humidity. Rats were fed a standard rodent chow and provided water ad libitum. Rats were received and housed in the facility for a period of approximately 1 to 2 days.
Compounds were formulated using 100% DMSO mixed in Sterile Water for Injection, resulting in 2% DMSO solution in water. If necessary, due to limited solubility of a test article, a higher percentage of DMSO solution in water was used. Groups of 8 mated and presumed pregnant female rats were given subcutaneous doses of vehicle or test article, once every three days, beginning on Gestation Day 6 and ending on Gestation Day 18 (Days 6, 9, 12, 15, and 18), maintained two more days, and then euthanized and necropsied on Gestation Day 20. Body weights was recorded for all animals on Gestation Days 5 (purpose of randomization), 6, 9, 12, 15, 18, and 20 (scheduled euthanasia). Food consumption by weight was recorded on Gestation Days 6, 9, 12, 15, 18, and 20 (scheduled termination).
At necropsy, the dams were examined visually for external abnormalities including palpable masses. The abdominal, thoracic, and cranial cavities and their contents were examined for abnormalities and findings will be recorded. The reproductive tract were examined to record the number of ovarian corpora lutea, the number and location of uterine implantation sites noting the position of the cervix, and the number of early resorptions, late resorptions, live fetuses, and dead fetuses. For dead fetuses and late resorptions, crown-to-rump length and weight were recorded, if possible, and the fetus was discarded. For viable fetuses, weight, sex, and grossly visible external abnormalities were recorded.

[5] = DIO mouse, 0.3 mpk sc, once a day for 10 days
[6] = DIO mouse, once a day for 10 days
[7] = 6 mpk, subcutaneous, once every three days, Gestation Days 6-18, pregnant rats

IC50 [1]	SMILES	inhibition in vivo at 0.3 mg/kg [2, 5]	inhibition in vivo at 0.3 mg/kg [3]	inhibition in vivo at 1 mg/kg [2, 6]	Rat Embryofetal @6 mpk [4, 7]	inhibition in vivo at 0.3 mg/kg ([2]; Mus musculus, sc)	Rat Embryofetal @6 mpk ([4]; rat, in vivo)	inhibition in vivo at 0.1 mg/kg [2, 6]	inhibition in vivo at 1 mg/kg [3]	inhibition in vivo at 0.03 mg/kg ([2]; DIO mouse, 0.03 mpk sc, once a day for 10 days)
< 50 nM	CCN(CC)CC[C@H]1CCN(C(=O)O[C@@H]2CC[C@]3(CO3)[C@@H]([C@@]3(C)O[C@@H]3CC=C(C)C)[C@@H]2OC)C1 [Example 53, (S)-((3R,4S,5S,6R)-5-methoxy-4-((2R,3R)-2-methyl-3-(3-methylbut-2-enyl)oxiran-2-yl)-1-oxaspiro[2.5]octan-6-yl) 3-(2-(diethylamino)ethyl)pyrrolidine-1-carboxylate]	10.9%	3%	–	–	–	–	–	–	–
< 50 nM	CCN(CC)CC[C@H]1CCN(C(=O)O[C@@H]2CC[C@]3(CO3)[C@@H]([C@@]3(C)O[C@@H]3CC=C(C)C)[C@@H]2OC)C1 [Example 52, (S)-((3R,4S,5S,6R)-5-methoxy-4-((2R,3R)-2-methyl-3-(3-methylbut-2-enyl)oxiran-2-yl)-1-oxaspiro[2.5]octan-6-yl) 3-(2-(diethylamino)ethyl)pyrrolidine-1-carboxylate]	8.3%	4%	–	–	–	–	–	–	–
< 50 nM	CCNCCC1CN(C(=O)O[C@@H]2CC[C@]3(CO3)[C@@H]([C@@]3(C)O[C@@H]3CC=C(C)C)[C@@H]2OC)C1 [Example 121, (3R,4S,5S,6R)-5-methoxy-4-((2R,3R)-2-methyl-3-(3-methylbut-2-en-1-yl)oxiran-2-yl)-1-oxaspiro[2.5]octan-6-yl3-(2-(ethylamino)ethyl)azetidine-1-carboxylate]	7.5%	5%	12.6%	–	–	–	–	–	–
–	CO[C@@H]1[C@H](OC(=O)N2CC(OC(=O)N3CCN(C)CC3)C2)CC[C@]2(CO2)[C@H]1[C@@]1(C)O[C@@H]1CC=C(C)C [Example 78, 1-(((3R,4S,5S,6R)-5-methoxy-4-((2R,3R)-2-methyl-3-(3-methylbut-2-enyl)oxiran-2-yl)-1-oxaspiro[2.5]octan-6-yloxy)carbonyl)azetidin-3-yl 4-methylpiperazine-1-carboxylate]	10.7%	1.2%	–	Positive	–	–	–	–	–
–	CO[C@@H]1[C@H](OC(=O)N2CC(CCN3CC4C(C3)C4(F)F)C2)CC[C@]2(CO2)[C@H]1[C@@]1(C)O[C@@H]1CC=C(C)C (stereo partly drawn) [Example 22, (3R,4S,5S,6R)-5-methoxy-4-((2R,3R)-2-methyl-3-(3-methylbut-2-enyl)oxiran-2-yl)-1-oxaspiro[2.5]octan-6-yl 3-(2-(6,6-difluoro-3-azabicyclo[3.1.0]hexan-3-yl)ethyl)azetidine-1-carboxylate formate]	–	–	–	–	14%	Negative	–	–	–
–	CO[C@@H]1[C@H](OC(=O)N2CC(CCN3CC(F)(F)C3)C2)CC[C@]2(CO2)[C@H]1[C@@]1(C)O[C@@H]1CC=C(C)C [Example 2, (3R,4S,5S,6R)-5-methoxy-4-((2R,3R)-2-methyl-3-(3-methylbut-2-enyl)oxiran-2-yl)-1-oxaspiro[2.5]octan-6-yl 3-(2-(3,3-difluoroazetidin-1-yl)ethyl)azetidine-1-carboxylate]	19.7%	5.7%	24.2%	Negative	–	–	14.2%	6.4%	–
–	CO[C@@H]1[C@H](OC(=O)N2CC(Cc3ccc(C)nc3)C2)CC[C@]2(CO2)[C@H]1[C@@]1(C)O[C@@H]1CC=C(C)C [Example 101, (3R,4S,5S,6R)-5-methoxy-4-((2R,3R)-2-methyl-3-(3-methylbut-2-enyl)oxiran-2-yl)-1-oxaspiro[2.5]octan-6-yl 3-((6-methylpyridin-3-yl)methyl)azetidine-1-carboxylate]	15.6%	3.9%	–	Positive	–	–	–	–	–
–	CCN(CC)CCCC1CN(C(=O)O[C@@H]2CC[C@]3(CO3)[C@@H]([C@@]3(C)O[C@@H]3CC=C(C)C)[C@@H]2OC)C1 [Example 104, (3R,4S,5S,6R)-5-methoxy-4-((2R,3R)-2-methyl-3-(3-methylbut-2-enyl)oxiran-2-yl)-1-oxaspiro[2.5]octan-6-yl 3-(3-(diethylamino)propyl)azetidine-1-carboxylate]	6.4%	1.2%	10.9%	Positive	–	–	8.3%	9.9%	-0.9%
–	CO[C@@H]1[C@H](OC(=O)N2CC(OC(=O)N3CCN(CC(F)(F)F)CC3)C2)CC[C@]2(CO2)[C@H]1[C@@]1(C)O[C@@H]1CC=C(C)C [Example 81, 1-(((3R,4S,5S,6R)-5-methoxy-4-((2R,3R)-2-methyl-3-(3-methylbut-2-enyl)oxiran-2-yl)-1-oxaspiro[2.5]octan-6-yloxy)carbonyl)azetidin-3-yl 4-(2,2,2-trifluoroethyl)piperazine-1-carboxylate]	16.9%	–	–	Positive	–	–	–	–	–
< 50 nM	CCNC[C@H]1CCN1C(=O)O[C@@H]1CC[C@]2(CO2)[C@@H]([C@@]2(C)O[C@@H]2CC=C(C)C)[C@@H]1OC [Example 123, (R)-((3R,4S,5S,6R)-5-methoxy-4-((2R,3R)-2-methyl-3-(3-methylbut-2-enyl)oxiran-2-yl)-1-oxaspiro[2.5]octan-6-yl) 2-((ethylamino)methyl)azetidine-1-carboxylate formate]	–	1%	9.7%	–	–	–	–	5.4%	–
